Data published in PubChem BioAssay AID330 (DTP/NCI, 2004).
Several values for one entry are separate records, joined by “and”; a condition that tells them apart may be missing. Equal values may be shown once. Inconclusive results and toxic doses are left out. The calls were made as follows: active = survival T/C of 150% or more; inactive = T/C below 125% in these data.

Test system: P388 leukemia ip, CD2F1 mice, survival T/C
Assay: NCI In Vivo Anticancer Drug Screen. Data for tumor model P388 Leukemia (intraperitoneal) in CD2F1 (CDF1) mice
Details: endpoint: median survival time, higher = longer survival
Method in brief: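 Mice carrying the transplanted tumor received test compound or vehicle. Survival was recorded in each group, and the value is the treated-group measurement divided by that of the vehicle-treated control group.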

[1] = dose: 50.0 mg/kg/injection, schedule: Q01DX009 (ip), vehicle: saline with Tween-80
[2] = dose: 100.0 mg/kg/injection, schedule: Q01DX009 (ip), vehicle: saline with Tween-80
[3] = dose: 200.0 mg/kg/injection, schedule: Q01DX009 (ip), vehicle: saline with Tween-80
[4] = dose: 25.0 mg/kg/injection, schedule: Q01DX009 (ip), vehicle: Klucel (hydroxypropylcellulose) (HPC)
[5] = dose: 50.0 mg/kg/injection, schedule: Q01DX009 (ip), vehicle: Klucel (hydroxypropylcellulose) (HPC)
[6] = dose: 100.0 mg/kg/injection, schedule: Q01DX009 (ip), vehicle: Klucel (hydroxypropylcellulose) (HPC)
[7] = dose: 25.0 mg/kg/injection, schedule: Q01DX009 (ip), vehicle: saline with Tween-80
[8] = dose: 200.0 mg/kg/injection, schedule: Q01DX009 (ip), vehicle: Klucel (hydroxypropylcellulose) (HPC)
[9] = dose: 60.0 mg/kg/injection, schedule: Q01DX005 (ip), vehicle: saline with Tween-80
[10] = dose: 120.0 mg/kg/injection, schedule: Q01DX005 (ip), vehicle: saline with Tween-80
[11] = dose: 240.0 mg/kg/injection, schedule: Q01DX005 (ip), vehicle: saline with Tween-80
[12] = dose: 50.0 mg/kg/injection, schedule: Q01DX005 (ip), vehicle: saline with Tween-80

Measured: T/C

C=C(C)C1CC=C(CCCC(C)COC2OCC(OC(=O)/C(C)=C/CCC3=CCC(C(=C)C)CC3O)C(O)C2O)CC1 (stereo unspecified)
inactive: dose: 10.75 mg/kg/injection, schedule: Q01DX005 (ip), vehicle: Klucel (hydroxypropylcellulose) (HPC) 103 % of control | dose: 21.5 mg/kg/injection, schedule: Q01DX005 (ip), vehicle: Klucel (hydroxypropylcellulose) (HPC) 114 % of control | dose: 43.0 mg/kg/injection, schedule: Q01DX005 (ip), vehicle: Klucel (hydroxypropylcellulose) (HPC) 119 % of control

CCOC(=O)/C(=C(/[S-])SC)[n+]1ccc(C)cc1
inactive: dose: 100.0 mg/kg/injection, schedule: Q04DX002 (ip), vehicle: saline with Tween-80 101 % of control | dose: 200.0 mg/kg/injection, schedule: Q04DX002 (ip), vehicle: saline with Tween-80 99 % of control

FC(F)C(F)(F)C(F)(F)C(F)(F)COCC1(COCC(F)(F)C(F)(F)C(F)(F)C(F)F)COC1
inactive: [1] 100 % of control | [2] 106 % of control | [3] 109 % of control

CC(Cc1ccccc1)NN1CCOC(c2ccccc2)C1C (stereo unspecified)
inactive: dose: 100.0 mg/kg/injection, schedule: Q04DX002 (ip), vehicle: saline 102 % of control | dose: 200.0 mg/kg/injection, schedule: Q04DX002 (ip), vehicle: saline 107 % of control | dose: 400.0 mg/kg/injection, schedule: Q04DX002 (ip), vehicle: saline 101 % of control

COc1cc2c3cc1Oc1c(OC)c(OC)cc4c1C(Cc1ccc(O)c(c1)-c1cc(ccc1OC)CC3N(C)CC2)N(C)CC4 (stereo unspecified)
inactive: dose: 0.78 mg/kg/injection, schedule: Q01DX009 (ip), vehicle: Klucel (hydroxypropylcellulose) (HPC) 106 % of control | dose: 1.56 mg/kg/injection, schedule: Q01DX009 (ip), vehicle: Klucel (hydroxypropylcellulose) (HPC) 87 % of control | dose: 3.13 mg/kg/injection, schedule: Q01DX009 (ip), vehicle: Klucel (hydroxypropylcellulose) (HPC) 104 % of control | dose: 6.25 mg/kg/injection, schedule: Q01DX009 (ip), vehicle: Klucel (hydroxypropylcellulose) (HPC) 104 % of control

COc1ccc(Cl)c(C)c1C(=O)OC1CC(OC2C(O)CC(OC3CCCC4C3C=CC3CCCC/C=C/C5C=C(C(=O)O)C(C)CC56OC(=O)C(=C6O)OC(=O)C34C)OC2C)OC(C)C1O (stereo unspecified)
inactive: [4] 103 % of control | [5] 97 % of control | [6] 89 % of control

CN1C(c2ccccc2)CC(=O)C(N)C1c1ccccc1 (stereo unspecified)
inactive: dose: 50.0 mg/kg/injection, schedule: Q01DX005 (ip), vehicle: distilled water + Tween-80 92 % of control | dose: 100.0 mg/kg/injection, schedule: Q01DX005 (ip), vehicle: distilled water + Tween-80 90 % of control | dose: 200.0 mg/kg/injection, schedule: Q01DX005 (ip), vehicle: distilled water + Tween-80 92 % of control

Cc1cc(NC(=S)SCc2ccc3c(c2)OCO3)ccc1Br
inactive: [4] 102 % of control and 107 % of control | [7] 96 % of control | [5] 107 % of control and 115 % of control and 116 % of control | [1] 91 % of control | dose: 50.0 mg/kg/injection, schedule: Q01DX009 (ip), vehicle: suspension in saline 93 % of control | [6] 107 % of control and 115 % of control and 118 % of control | [2] 100 % of control | dose: 100.0 mg/kg/injection, schedule: Q01DX009 (ip), vehicle: suspension in saline 104 % of control | [8] 107 % of control | [3] 100 % of control | dose: 200.0 mg/kg/injection, schedule: Q01DX009 (ip), vehicle: suspension in saline 93 % of control

O=C1NC(=O)NC(C(=O)O)N1
inactive: dose: 12.5 mg/kg/injection, schedule: Q01DX009 (ip), vehicle: Klucel (hydroxypropylcellulose) (HPC) 105 % of control | [4] 105 % of control | [7] 94 % of control | dose: 50.0 mg/kg/injection, schedule: Q01DX009 (ip), vehicle: DMSO 103 % of control | [5] 104 % of control | [1] 100 % of control | dose: 100.0 mg/kg/injection, schedule: Q01DX009 (ip), vehicle: DMSO 100 % of control | [6] 104 % of control | [2] 100 % of control | dose: 200.0 mg/kg/injection, schedule: Q01DX009 (ip), vehicle: DMSO 97 % of control | [8] 115 % of control | [3] 95 % of control

CC1(C)S/C(=C\c2ccccc2)c2nc3ccccc3c(=O)n21
inactive: [9] 97 % of control | [10] 91 % of control | [11] 89 % of control

N#CCc1ccccc1C(C#N)C(=O)CCC(=O)C(C#N)c1ccccc1CC#N (stereo unspecified)
inactive: [9] 104 % of control | [10] 103 % of control | [11] 102 % of control

Nc1c2c(=O)[nH]c(O)cc2nn1-c1ccccc1
inactive: dose: 12.5 mg/kg/injection, schedule: Q01DX005 (ip), vehicle: saline with Tween-80 100 % of control | dose: 25.0 mg/kg/injection, schedule: Q01DX005 (ip), vehicle: saline with Tween-80 96 % of control | [12] 100 % of control and 97 % of control

C/C(=C\c1ccc([N+](=O)[O-])cc1)C(=O)NC(C)C
inactive: dose: 50.0 mg/kg/injection, schedule: Q01DX005 (ip), vehicle: other 102 % of control | dose: 100.0 mg/kg/injection, schedule: Q01DX005 (ip), vehicle: other 93 % of control | dose: 200.0 mg/kg/injection, schedule: Q01DX005 (ip), vehicle: other 105 % of control

[O-]/[N+](=C\c1c(Cl)cccc1Cl)CC1(O)CCCCC1
inactive: [1] 96 % of control | [2] 90 % of control | [3] 99 % of control

CC(=O)CCC1=C(O)C(C)=C(C)C(=O)C1=O
inactive: dose: 60.0 mg/kg/injection, schedule: Q01DX005 (ip), vehicle: Klucel (hydroxypropylcellulose) (HPC) 103 % of control | dose: 120.0 mg/kg/injection, schedule: Q01DX005 (ip), vehicle: Klucel (hydroxypropylcellulose) (HPC) 115 % of control | dose: 240.0 mg/kg/injection, schedule: Q01DX005 (ip), vehicle: Klucel (hydroxypropylcellulose) (HPC) 109 % of control

Cc1nc2c(N)cc(Cl)cc2[nH]1
inactive: dose: 50.0 mg/kg/injection, schedule: Q01DX005 (ip), vehicle: saline + Tween-80 + alcohol 101 % of control | [12] 103 % of control | dose: 100.0 mg/kg/injection, schedule: Q01DX005 (ip), vehicle: saline + Tween-80 + alcohol 110 % of control | dose: 100.0 mg/kg/injection, schedule: Q01DX005 (ip), vehicle: saline with Tween-80 113 % of control | dose: 200.0 mg/kg/injection, schedule: Q01DX005 (ip), vehicle: saline with Tween-80 120 % of control

O=C(O)c1ccccc1C(=O)OCc1ccccc1
inactive: dose: 100.0 mg/kg/injection, schedule: Q04DX003 (ip), vehicle: Klucel (hydroxypropylcellulose) (HPC) 100 % of control | dose: 200.0 mg/kg/injection, schedule: Q04DX003 (ip), vehicle: Klucel (hydroxypropylcellulose) (HPC) 100 % of control | dose: 400.0 mg/kg/injection, schedule: Q04DX003 (ip), vehicle: Klucel (hydroxypropylcellulose) (HPC) 97 % of control

C=CCCN(c1ccc(C(=O)OCC)cc1)S(=O)(=O)c1ccc(C)cc1
inactive: [7] 100 % of control | [1] 110 % of control | [2] 100 % of control | [3] 108 % of control

CC1=CC2OC3CC4OC(=O)/C=C/C=C/C(C(C)O)OCCC5(C)OC5C(=O)OCC2(CC1)C4(C)C31CO1 (stereo unspecified)
inactive: dose: 1.25 mg/kg/injection, schedule: Q01DX005 (ip), vehicle: saline + alcohol 101 % of control | dose: 2.5 mg/kg/injection, schedule: Q01DX005 (ip), vehicle: saline + alcohol 118 % of control
